For assay [1], the target named is T1, mOR256-17 (Mus musculus, UniProt P23275).
T1 sequence (P23275 1-312): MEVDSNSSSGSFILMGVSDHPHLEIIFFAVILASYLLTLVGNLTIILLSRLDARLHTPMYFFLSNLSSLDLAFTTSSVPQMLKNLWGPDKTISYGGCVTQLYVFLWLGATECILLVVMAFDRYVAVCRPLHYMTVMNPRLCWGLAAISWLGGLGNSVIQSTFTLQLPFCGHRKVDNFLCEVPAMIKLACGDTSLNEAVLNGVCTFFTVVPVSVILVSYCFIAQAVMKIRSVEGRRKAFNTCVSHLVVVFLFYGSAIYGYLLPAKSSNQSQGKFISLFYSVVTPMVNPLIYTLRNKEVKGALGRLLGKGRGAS
As to conditions: cited from earlier work.

Assay [2] deals with mOR203-1. As to conditions: mOR203-1 expressed in HEK cells; cited from earlier work.
In assay [3] the test system is mOR203-1. Nature of the assay: Vapor response of mOR-functionalized carbon nanotube transistor. Conditions: for NT device response: FIG. 12A.
Assay [4] concerns the target T1, mOR256-17. Put plainly: Vapor response of mOR-functionalized carbon nanotube transistor, high-speed data acquisition. It is filed as binding. Set-up: made in house; host or cells: Sf9 insect cells (Bac-to-Bac, pFastBac HT, Invitrogen). Conditions: cyclohexanone 2250 ppm, mOR 256-17 in nanodiscs.
Assay [5] can be described thus: Control vapor response of bare nanotube devices and devices with Ni-NTA and empty digitonin micelles. Conditions: bare NT transistors and devices treated with Ni-NTA and empty digitonin micelles.
Another assay has as its target T2, mOR174-9 (Mus musculus, UniProt Q920P2).
T2 sequence (Q920P2 1-313): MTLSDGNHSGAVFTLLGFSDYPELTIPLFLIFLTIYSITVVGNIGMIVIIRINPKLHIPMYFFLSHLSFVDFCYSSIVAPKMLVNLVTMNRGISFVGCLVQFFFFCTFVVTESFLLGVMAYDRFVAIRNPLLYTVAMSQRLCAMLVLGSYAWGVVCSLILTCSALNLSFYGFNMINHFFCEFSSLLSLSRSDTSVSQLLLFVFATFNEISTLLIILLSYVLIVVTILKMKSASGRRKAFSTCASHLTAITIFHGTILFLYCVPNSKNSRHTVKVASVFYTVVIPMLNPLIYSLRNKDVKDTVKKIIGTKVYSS
Nature of the assay: Vapor response of mOR-functionalized carbon nanotube transistor.

Assay [6] deals with mouse olfactory receptor proteins (mORs). Put plainly: Vapor response of mOR-functionalized NT devices, mOR not specified. In kind it is binding. Conditions: all three mORs.
Assay [7] addresses T1, mOR256-17. Put plainly: Xenopus oocyte expression with robotic electrophysiology. As to conditions: mOR 256-17.
Setting [8] is: mOR203-1 in digitonin micelles, single sensor, FIG. 4.

Values joined by “and” are separate entries in the source; they are usually repeats but may differ in a detail not shown here. Identical values can stand only once. “Also recorded” adds a separate entry of the source. Like-named read-outs stand apart in the source and are kept apart here.

For `CCCCCC(C)=O` [2-heptanone], the “response of mOR256-17 according to published reports” value (shortened to “response of mOR256-17 according”) on mOR256-17 [1] is “not”. For the same compound, in the assay on mOR203-1 [2], the HEK data response result was “strong response”. Besides, the “NT device response with both packaging methods” value in the assay on mOR203-1 [3] (mOR 203-1, surfactant stabilized and nanodisc stabilized) was “expected response”. The NT device response result with mOR203-1 [3] (mOR203-1 in digitonin micelles) is “strong response”. In addition, the change in conductance result in the assay with mOR203-1 [3] (setting [8]) is given as “negative changes in conductance”.

Take `CC(=O)c1ccccc1` [acetophenone]: the HEK data response result in the assay with mOR203-1 [2] is “lack of response”. For the same compound, in the assay on mOR203-1 [3] (mOR203-1 in digitonin micelles), the NT device response result is listed as “lack of response”.

`O=C1CCCCC1` [cyclohexanone]: at mOR256-17 [4], the “response time constant, first of double exponential fit (FIG. 11D)” value came out at 2.06 ± 0.01 s; the “response time constant, second of double exponential fit (FIG. 11D)” value worked out at 25.51 ± 0.04 s; the “sensing response time constant, first of double exponential fit (FIG. 3)” value is 9.1 s and 9.08 ± 0.04 s; the “sensing response time constant, second of double exponential fit (FIG. 3)” value was 41.2 s and 41.2 ± 0.4 s. At mOR256-17 [1], the “response of mOR256-17 according” value is reported as “responds”. In addition, the “response of control devices without mOR” value in assay [5] is recorded as “small response”. The “NT device response shared by both packaging methods” value at mOR174-9 (mOR 174-9, surfactant stabilized and nanodisc stabilized) was “response shared between the two packaging methods”. The “response of the inventive devices” value in assay [6] is given as “strong response”. Further, the “oocyte measurement response, in words” value on mOR256-17 [7] is listed as “show a response”.

On to `C=CCc1ccc(O)c(OC)c1` [eugenol], for which, in assay [5], the “response of control devices without mOR” value is on record as “no change in conductance”. Moreover, on mOR174-9, the “NT device response shared by both packaging methods” value is on record as “expected response” and the “sensing response (change in device current)” value is given as “large positive responses; also recorded: large positive sensing response”. Moreover, in the assay on mOR203-1 [3] (setting [8]), the change in conductance result is recorded as “positive changes in conductance”.

`CCCCCCC=O` [heptanal]: the “response of mOR256-17 according” value at mOR256-17 [1] is “not”. Moreover, in the assay with mOR203-1 [2], the HEK data response entry was “lack of response”. For the same compound, the NT device response result in the assay with mOR203-1 [3] (mOR203-1 in digitonin micelles) is recorded as “lack of response”.

For the compound `COC(=O)c1ccccc1` [methyl benzoate], in the assay on mOR203-1 [3], the change in conductance result is reported as “no change in conductance”.

For the compound `CCCCCOC(C)=O` [n-amyl acetate], the change in conductance entry with mOR203-1 [3] (setting [8]) is “negative changes in conductance”.

The values are drawn from patent publication US9612240B2, “Biomimetic chemical sensors using nanoelectronic readout of olfactory receptors” (The Trustees Of The University Of Pennsylvania, priority 2010, dated 2017).
